Measurements: ChEMBL document CHEMBL1133531, “Carbonic anhydrase inhibitors: perfluoroalkyl/aryl-substituted derivatives of aromatic/heterocyclic sulfonamides as topical intraocular pressure-lowering agents with prolonged duration of action” (J Med Chem, 2000)

Columns and labels:
Carbonic anhydrase 1 = Carbonic anhydrase 1 (Homo sapiens, UniProt P00915)
Description: Inhibition of human recombinant carbonic anhydrase I (CA1)

Carbonic anhydrase 4 = molecular target: T1, Carbonic anhydrase 4 (Bos taurus, UniProt Q95323)
T1 sequence (Q95323 whole entry): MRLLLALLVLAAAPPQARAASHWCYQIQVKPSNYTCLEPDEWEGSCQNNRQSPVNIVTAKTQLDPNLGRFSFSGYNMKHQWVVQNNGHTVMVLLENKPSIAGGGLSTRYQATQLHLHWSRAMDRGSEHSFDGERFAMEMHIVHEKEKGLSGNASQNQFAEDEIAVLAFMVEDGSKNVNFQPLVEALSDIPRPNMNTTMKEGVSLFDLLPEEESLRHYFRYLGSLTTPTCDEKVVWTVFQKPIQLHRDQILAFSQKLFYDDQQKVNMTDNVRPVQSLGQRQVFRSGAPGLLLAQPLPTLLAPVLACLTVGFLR
Description: Inhibition of bovine carbonic anhydrase IV (CA4) from bovine lung microsomes

Sequence of Carbonic anhydrase 1 (P00915 whole entry): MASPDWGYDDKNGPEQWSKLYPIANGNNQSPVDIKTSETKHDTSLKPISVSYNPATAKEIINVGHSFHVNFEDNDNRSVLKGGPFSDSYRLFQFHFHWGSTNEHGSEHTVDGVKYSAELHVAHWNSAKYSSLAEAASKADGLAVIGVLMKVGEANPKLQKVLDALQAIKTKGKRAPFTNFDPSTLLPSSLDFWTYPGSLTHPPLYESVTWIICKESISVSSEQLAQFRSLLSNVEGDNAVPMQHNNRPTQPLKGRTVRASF

SMILES	Ki (Carbonic anhydrase 1)	Ki (Carbonic anhydrase 4)
NS(=O)(=O)c1ccc(COC(=O)C(F)(F)C(F)(F)C(F)(F)C(F)(F)C(F)(F)C(F)(F)C(F)(F)C(F)(F)F)cc1	15000 nM	11000 nM
NS(=O)(=O)c1cccc(NS(=O)(=O)c2ccc(NS(=O)(=O)C(F)(F)C(F)(F)C(F)(F)C(F)(F)F)cc2)c1	4000 nM	36 nM
NS(=O)(=O)c1ccc(NNS(=O)(=O)C(F)(F)C(F)(F)C(F)(F)C(F)(F)F)cc1	15000 nM	600 nM
NS(=O)(=O)c1ccc(COS(=O)(=O)c2c(F)c(F)c(F)c(F)c2F)cc1	290 nM	100 nM
NS(=O)(=O)c1nnc(NC(=O)C(F)(F)C(F)(F)C(F)(F)C(F)(F)C(F)(F)C(F)(F)C(F)(F)C(F)(F)F)s1	300 nM	13 nM
NS(=O)(=O)c1cccc(NS(=O)(=O)c2ccc(NC(=O)c3c(F)c(F)c(F)c(F)c3F)cc2)c1	8000 nM	55 nM
NS(=O)(=O)c1nc2ccc(OC(=O)c3c(F)c(F)c(F)c(F)c3F)cc2s1	105 nM	9 nM
NS(=O)(=O)c1cc(S(N)(=O)=O)c(NS(=O)(=O)C(F)(F)F)cc1Cl	550 nM	150 nM
NS(=O)(=O)c1ccc(NS(=O)(=O)C(F)(F)C(F)(F)C(F)(F)C(F)(F)F)cc1	15200 nM	480 nM
NS(=O)(=O)c1ccc(NC(=O)c2c(F)c(F)c(F)c(F)c2F)c(Cl)c1	1080 nM	590 nM
NS(=O)(=O)c1ccc(Nc2ccnc(NC(=O)c3c(F)c(F)c(F)c(F)c3F)n2)cc1	7700 nM	62 nM
NS(=O)(=O)c1nnc(NS(=O)(=O)C(F)(F)C(F)(F)C(F)(F)C(F)(F)C(F)(F)C(F)(F)C(F)(F)C(F)(F)F)s1	400 nM	12 nM
NS(=O)(=O)c1nnc(NS(=O)(=O)c2ccc(NS(=O)(=O)c3c(F)c(F)c(F)c(F)c3F)cc2)s1	24 nM	8 nM
Cn1nc(S(N)(=O)=O)sc1=NS(=O)(=O)C(F)(F)C(F)(F)C(F)(F)C(F)(F)F	350 nM	10 nM
NS(=O)(=O)c1ccccc1NS(=O)(=O)C(F)(F)F	175000 nM	97000 nM
NS(=O)(=O)c1ccc(NS(=O)(=O)C(F)(F)F)cc1	166000 nM	64600 nM
NS(=O)(=O)c1ccc(NS(=O)(=O)C(F)(F)C(F)(F)C(F)(F)C(F)(F)F)c(Cl)c1	10200 nM	880 nM
Cn1nc(S(N)(=O)=O)s/c1=N/S(=O)(=O)c1ccc(NS(=O)(=O)C(F)(F)C(F)(F)C(F)(F)C(F)(F)F)cc1	1000 nM	24 nM
NS(=O)(=O)c1cccc(NS(=O)(=O)c2ccc(NS(=O)(=O)C(F)(F)C(F)(F)C(F)(F)C(F)(F)C(F)(F)C(F)(F)C(F)(F)C(F)(F)F)cc2)c1	3600 nM	33 nM
NS(=O)(=O)c1ccc(Nc2ccnc(NS(=O)(=O)C(F)(F)C(F)(F)C(F)(F)C(F)(F)C(F)(F)C(F)(F)C(F)(F)C(F)(F)F)n2)cc1	4500 nM	34 nM
NS(=O)(=O)c1ccc(NS(=O)(=O)C(F)(F)C(F)(F)C(F)(F)C(F)(F)F)c(I)c1	23400 nM	1040 nM
NS(=O)(=O)c1cccc(NC(=O)C(F)(F)C(F)(F)C(F)(F)C(F)(F)C(F)(F)C(F)(F)C(F)(F)C(F)(F)F)c1	1600 nM	935 nM
NS(=O)(=O)c1ccc(NNS(=O)(=O)c2c(F)c(F)c(F)c(F)c2F)cc1	1000 nM	500 nM
NS(=O)(=O)c1nc2ccc(NS(=O)(=O)C(F)(F)C(F)(F)C(F)(F)C(F)(F)F)cc2s1	54 nM	6 nM
Cn1nc(S(N)(=O)=O)s/c1=N/S(=O)(=O)c1ccc(NS(=O)(=O)C(F)(F)C(F)(F)C(F)(F)C(F)(F)C(F)(F)C(F)(F)C(F)(F)C(F)(F)F)cc1	1100 nM	25 nM

SMILES	Ki (Carbonic anhydrase 1)	Ki (Carbonic anhydrase 4)
NS(=O)(=O)c1nc2ccc(OS(=O)(=O)C(F)(F)C(F)(F)C(F)(F)C(F)(F)F)cc2s1	29 nM	7 nM
NS(=O)(=O)c1cc(S(N)(=O)=O)c(NS(=O)(=O)C(F)(F)F)c(Cl)c1Cl	5500 nM	725 nM
NS(=O)(=O)c1ccc(COS(=O)(=O)C(F)(F)F)cc1	135000 nM	24100 nM
NS(=O)(=O)c1ccc(CNS(=O)(=O)c2c(F)c(F)c(F)c(F)c2F)cc1	790 nM	240 nM
NS(=O)(=O)c1cc(S(N)(=O)=O)c(NS(=O)(=O)C(F)(F)C(F)(F)C(F)(F)C(F)(F)F)c(Cl)c1Cl	5100 nM	160 nM
NS(=O)(=O)c1ccc(NNC(=O)c2c(F)c(F)c(F)c(F)c2F)cc1	1500 nM	980 nM
NS(=O)(=O)c1nc2ccc(OC(=O)C(F)(F)C(F)(F)C(F)(F)C(F)(F)C(F)(F)C(F)(F)C(F)(F)C(F)(F)F)cc2s1	37 nM	14 nM
NS(=O)(=O)c1ccc(NC(=O)c2c(F)c(F)c(F)c(F)c2F)c(I)c1	2560 nM	1040 nM
NS(=O)(=O)c1cc(S(N)(=O)=O)c(NS(=O)(=O)C(F)(F)C(F)(F)C(F)(F)C(F)(F)F)cc1Cl	400 nM	43 nM
NS(=O)(=O)c1cccc(NS(=O)(=O)c2ccc(NS(=O)(=O)C(F)(F)F)cc2)c1	5000 nM	45 nM
NS(=O)(=O)c1nnc(NC(=O)CCNC(=O)C(F)(F)C(F)(F)C(F)(F)C(F)(F)C(F)(F)C(F)(F)C(F)(F)C(F)(F)F)s1	300 nM	8 nM
NS(=O)(=O)c1cccc(NS(=O)(=O)c2c(F)c(F)c(F)c(F)c2F)c1	1100 nM	500 nM
NS(=O)(=O)c1cc(S(N)(=O)=O)c(NS(=O)(=O)c2c(F)c(F)c(F)c(F)c2F)cc1Cl	300 nM	26 nM
NS(=O)(=O)c1ccc(NS(=O)(=O)c2c(F)c(F)c(F)c(F)c2F)c(Cl)c1	1450 nM	540 nM
NS(=O)(=O)c1ccc(Nc2ccnc(NS(=O)(=O)c3c(F)c(F)c(F)c(F)c3F)n2)cc1	325 nM	24 nM
NS(=O)(=O)c1ccc(NS(=O)(=O)c2ccc(NS(=O)(=O)c3c(F)c(F)c(F)c(F)c3F)cc2)cc1	125 nM	15 nM
NS(=O)(=O)c1nnc(NS(=O)(=O)c2ccc(NS(=O)(=O)C(F)(F)C(F)(F)C(F)(F)C(F)(F)F)cc2)s1	900 nM	17 nM
NS(=O)(=O)c1ccc(CNC(=O)C(F)(F)C(F)(F)C(F)(F)C(F)(F)C(F)(F)C(F)(F)C(F)(F)C(F)(F)F)cc1	1000 nM	750 nM
NS(=O)(=O)c1nnc(NC(=O)CCNC(=O)c2c(F)c(F)c(F)c(F)c2F)s1	300 nM	10 nM
NS(=O)(=O)c1ccc(CCOC(=O)c2c(F)c(F)c(F)c(F)c2F)cc1	1250 nM	400 nM
NS(=O)(=O)c1ccc(NS(=O)(=O)C(F)(F)C(F)(F)C(F)(F)C(F)(F)C(F)(F)C(F)(F)C(F)(F)C(F)(F)F)c(F)c1	1450 nM	500 nM
NS(=O)(=O)c1cccc(NS(=O)(=O)c2ccc(NS(=O)(=O)c3c(F)c(F)c(F)c(F)c3F)cc2)c1	150 nM	16 nM
NS(=O)(=O)c1ccccc1NS(=O)(=O)C(F)(F)C(F)(F)C(F)(F)C(F)(F)C(F)(F)C(F)(F)C(F)(F)C(F)(F)F	1500 nM	1200 nM
NS(=O)(=O)c1ccc(CCNS(=O)(=O)c2c(F)c(F)c(F)c(F)c2F)cc1	760 nM	230 nM
Cn1nc(S(N)(=O)=O)s/c1=N/C(=O)c1c(F)c(F)c(F)c(F)c1F	270 nM	8 nM
